These results are taken from ChEMBL document CHEMBL5537175, “Unraveling the Puzzle of Therapeutic Peptides: A Promising Frontier in Huntington's Disease Treatment” (J Med Chem, 2024).

In general, Kd refers to the equilibrium constant for the complex coming apart. The term IC50 denotes the point on the concentration scale where inhibition reaches its midpoint. Usually inhibition stands for the change of the read-out against control, counted positive when it falls.

For one series, the target named is RNA. The series is described as follows: Binding affinity to CAG repeat RNA (unknown origin) assessed as dissociation constant. The class given is nucleic-acid assay.
The target in the next series is T1, Caspase-6 (Homo sapiens, UniProt P55212).
T1 sequence (P55212 whole entry): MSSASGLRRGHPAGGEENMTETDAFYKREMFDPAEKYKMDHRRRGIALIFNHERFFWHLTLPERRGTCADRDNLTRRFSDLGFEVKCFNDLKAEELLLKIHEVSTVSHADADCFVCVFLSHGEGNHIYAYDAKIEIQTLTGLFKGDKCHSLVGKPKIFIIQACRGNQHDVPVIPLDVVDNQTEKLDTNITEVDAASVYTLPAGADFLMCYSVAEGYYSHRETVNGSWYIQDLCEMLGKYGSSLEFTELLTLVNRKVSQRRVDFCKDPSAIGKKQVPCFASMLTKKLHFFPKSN
The series is described as follows: Inhibition of Caspase-6 activity (unknown origin) by FRET assay.

In series [1] the target is T2, Huntingtin (Homo sapiens, UniProt P42858). As to the kind of experiment: Inhibition of HTT (unknown origin) aggregation at 5 uM relative to control.
T2 sequence (P42858 whole entry): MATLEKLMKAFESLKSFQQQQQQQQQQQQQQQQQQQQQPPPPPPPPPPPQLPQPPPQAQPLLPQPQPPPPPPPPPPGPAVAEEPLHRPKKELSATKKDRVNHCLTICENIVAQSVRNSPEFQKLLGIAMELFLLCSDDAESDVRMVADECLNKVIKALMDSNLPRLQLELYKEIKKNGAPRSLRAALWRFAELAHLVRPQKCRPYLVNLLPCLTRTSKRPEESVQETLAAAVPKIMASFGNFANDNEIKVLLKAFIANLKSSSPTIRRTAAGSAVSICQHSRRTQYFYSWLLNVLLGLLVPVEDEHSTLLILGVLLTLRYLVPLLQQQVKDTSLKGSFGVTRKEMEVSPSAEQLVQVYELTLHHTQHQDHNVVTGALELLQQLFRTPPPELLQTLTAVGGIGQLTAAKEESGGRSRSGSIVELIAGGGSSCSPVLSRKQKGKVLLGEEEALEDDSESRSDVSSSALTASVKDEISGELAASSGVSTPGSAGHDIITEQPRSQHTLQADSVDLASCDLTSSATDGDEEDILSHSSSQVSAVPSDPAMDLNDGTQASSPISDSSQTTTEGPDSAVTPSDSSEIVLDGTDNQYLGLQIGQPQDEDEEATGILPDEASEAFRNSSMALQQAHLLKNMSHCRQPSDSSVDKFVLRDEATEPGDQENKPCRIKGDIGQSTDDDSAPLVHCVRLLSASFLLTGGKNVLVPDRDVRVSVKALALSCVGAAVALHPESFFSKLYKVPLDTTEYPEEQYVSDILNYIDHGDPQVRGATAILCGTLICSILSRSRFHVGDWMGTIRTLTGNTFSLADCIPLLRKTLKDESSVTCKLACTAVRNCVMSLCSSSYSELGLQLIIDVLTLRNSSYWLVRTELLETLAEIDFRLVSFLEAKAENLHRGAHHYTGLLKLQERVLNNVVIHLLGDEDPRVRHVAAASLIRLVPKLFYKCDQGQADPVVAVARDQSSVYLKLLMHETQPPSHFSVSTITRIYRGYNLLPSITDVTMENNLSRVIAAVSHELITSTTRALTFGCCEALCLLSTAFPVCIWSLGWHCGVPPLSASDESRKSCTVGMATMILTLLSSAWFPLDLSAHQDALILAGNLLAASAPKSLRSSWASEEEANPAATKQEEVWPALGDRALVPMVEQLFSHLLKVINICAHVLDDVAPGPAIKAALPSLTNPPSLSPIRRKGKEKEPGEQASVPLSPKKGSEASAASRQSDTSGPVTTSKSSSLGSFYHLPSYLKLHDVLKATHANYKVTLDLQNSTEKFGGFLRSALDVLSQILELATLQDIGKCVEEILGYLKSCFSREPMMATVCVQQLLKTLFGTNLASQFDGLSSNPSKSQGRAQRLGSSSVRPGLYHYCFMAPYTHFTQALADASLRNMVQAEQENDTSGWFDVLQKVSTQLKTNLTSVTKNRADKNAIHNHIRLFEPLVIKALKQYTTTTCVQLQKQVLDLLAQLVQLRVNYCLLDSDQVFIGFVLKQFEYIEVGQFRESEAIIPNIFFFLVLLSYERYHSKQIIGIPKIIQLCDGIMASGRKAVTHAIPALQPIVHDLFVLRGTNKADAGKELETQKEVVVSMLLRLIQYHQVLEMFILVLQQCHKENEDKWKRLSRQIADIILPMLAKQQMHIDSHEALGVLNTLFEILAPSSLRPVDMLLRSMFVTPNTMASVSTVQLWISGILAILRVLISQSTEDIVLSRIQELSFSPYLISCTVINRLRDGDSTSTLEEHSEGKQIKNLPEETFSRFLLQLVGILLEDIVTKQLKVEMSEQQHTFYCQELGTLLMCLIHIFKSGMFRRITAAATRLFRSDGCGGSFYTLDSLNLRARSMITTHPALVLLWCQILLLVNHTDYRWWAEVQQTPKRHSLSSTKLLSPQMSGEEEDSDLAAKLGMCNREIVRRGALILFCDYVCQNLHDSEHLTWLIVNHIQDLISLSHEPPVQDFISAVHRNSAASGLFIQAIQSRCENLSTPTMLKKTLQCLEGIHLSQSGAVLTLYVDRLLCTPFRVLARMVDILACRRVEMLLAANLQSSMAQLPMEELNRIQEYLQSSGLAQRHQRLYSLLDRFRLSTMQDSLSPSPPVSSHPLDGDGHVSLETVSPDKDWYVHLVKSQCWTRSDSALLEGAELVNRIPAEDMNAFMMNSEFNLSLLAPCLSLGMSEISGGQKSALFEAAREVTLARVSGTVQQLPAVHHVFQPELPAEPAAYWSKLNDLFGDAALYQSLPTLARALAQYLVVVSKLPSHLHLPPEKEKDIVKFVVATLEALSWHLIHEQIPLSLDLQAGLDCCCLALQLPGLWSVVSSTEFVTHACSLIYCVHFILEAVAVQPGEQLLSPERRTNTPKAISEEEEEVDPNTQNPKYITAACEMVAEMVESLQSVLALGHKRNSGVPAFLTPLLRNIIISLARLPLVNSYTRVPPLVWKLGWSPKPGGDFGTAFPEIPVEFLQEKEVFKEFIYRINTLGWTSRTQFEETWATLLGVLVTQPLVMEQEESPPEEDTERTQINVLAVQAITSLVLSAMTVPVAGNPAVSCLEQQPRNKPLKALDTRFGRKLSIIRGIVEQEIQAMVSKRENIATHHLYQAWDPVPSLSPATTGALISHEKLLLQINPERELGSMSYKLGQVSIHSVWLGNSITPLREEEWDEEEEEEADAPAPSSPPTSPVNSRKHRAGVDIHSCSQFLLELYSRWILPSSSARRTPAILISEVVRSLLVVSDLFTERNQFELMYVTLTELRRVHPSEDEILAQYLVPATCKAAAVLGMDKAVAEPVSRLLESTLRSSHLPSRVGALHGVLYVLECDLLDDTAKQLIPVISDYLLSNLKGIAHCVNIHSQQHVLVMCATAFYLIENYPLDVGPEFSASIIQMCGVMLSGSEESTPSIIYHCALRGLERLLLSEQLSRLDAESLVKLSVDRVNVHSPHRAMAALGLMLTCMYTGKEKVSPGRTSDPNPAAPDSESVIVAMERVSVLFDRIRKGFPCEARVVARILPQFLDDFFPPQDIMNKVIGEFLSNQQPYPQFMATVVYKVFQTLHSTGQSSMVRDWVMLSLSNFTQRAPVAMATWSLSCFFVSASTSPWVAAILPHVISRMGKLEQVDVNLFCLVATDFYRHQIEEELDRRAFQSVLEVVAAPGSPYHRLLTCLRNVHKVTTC
A further series relates to COS-7. The series is described as follows: Cytotoxicity against african green monkey COS-7 cells assessed as reduction in cell growth. The class given is toxicity, cell-based. The arrangement: scale not given: the % may be the effect or the level left. The settings on record: chlorocebus aethiops.
The target in series [2] is T2, Huntingtin. The series is described as follows: Binding affinity to HTT (unknown origin) assessed as dissociation constant by surface plasmon resonance assay.
Series [3] deals with T2, Huntingtin. As to the kind of experiment: Inhibition of HTT (unknown origin) by ELISA method. For orientation: ELISA stands for enzyme-linked immunosorbent assay.
Series [4] is described as follows: Inhibition of YFP aggregation in african green monkey COS-7 cells at 70 nM relative to control. The class given is functional. As to conditions: Chlorocebus aethiops.

Turning to Ac-DGKSKGIAYIEFK-NH2, the Kd on RNA worked out at 0.33 nM.

In the case of H-AEIRLVSKDGKSKGIAYIEFK-OH, the Kd on RNA was determined as 660 nM.

Consider H-DGKSKGIAYIEFK-OH, for which the Kd at RNA is 8.37 nM.

Turning to H-GRKKRRQRRRPPQSSEIVLDGTDN-OH, on Caspase-6, it took 12.1 nM to reach half-maximal inhibition (IC50).

In turn, H-MATLEKLMKAFESLKSF-OH gave an inhibition against Huntingtin [1] of 20%.

Take H-RQIKIWFQNRRMKWKKSNWKWWPGIFD-OH: the Activity with COS-7 amounted to 30.2%.

Take H-SNWKWWPGIFD-OH: the Kd at Huntingtin [2] worked out at 5700 nM. Besides, the IC50 on Huntingtin [3] was found to be 5000 nM.

Turning to H-WKWWPGIFDYGRKKRRQRRR-OH, the inhibition at 0.07 µM in series [4] worked out at 81.2%.
